This passage reports Bliss interaction score results from the supplement of paper PMC10627819.

Experiment in all cases: Bliss interaction score (quartile over a dose matrix) (fitness difference); higher = more antagonism (negative = synergy)
Assay [1] concerns B. subtilis 168. The gist of the method:
(§1)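 The Bliss score subtracts expected fitness, the product of the single-drug fitness values, from observed fitness. Fitness is plate-normalised OD595 at entry into stationary phase, relative to the robust no-drug mean and capped at 1, with single-drug fitness inferred from combinations. Summaries are quartiles over technical, biological and donor/recipient replicates.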

Assay [2] relates to S. aureus Newman. The gist of the method:
as §1

Assay [3] concerns S. aureus DSM 20231. The gist of the method: as §1
The subject of assay [4] is S. pneumoniae D39V. The gist of the method:
as §1
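Note: first quartile when negative (synergy) and third quartile when positive (antagonism).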

`CC[C@H]1OC(=O)[C@H](C)[C@@H](O[C@H]2C[C@@](C)(OC)[C@@H](O)[C@H](C)O2)[C@H](C)[C@@H](O[C@@H]2O[C@H](C)C[C@H](N(C)C)[C@H]2O)[C@](C)(O)C[C@@H](C)C(=O)[C@H](C)[C@@H](O)[C@]1(C)O` [Erythromycin] + C[n+]1ccc(-c2cc[n+](C)cc2)cc1 [Paraquat]: the Bliss interaction score in assay [1] is -0.0399; in assay [2] it was 0.0479; in assay [3], 0.0299; in assay [4], 0.0496.
The like results for `CC[C@H]1OC(=O)[C@H](C)[C@@H](O[C@H]2C[C@@](C)(OC)[C@@H](O)[C@H](C)O2)[C@H](C)[C@@H](O[C@@H]2O[C@H](C)C[C@H](N(C)C)[C@H]2O)[C@](C)(O)C[C@@H](C)C(=O)[C@H](C)[C@@H](O)[C@]1(C)O` [Erythromycin] + CC[C@H]1OC(=O)[C@H](C)C(=O)[C@H](C)[C@@H](O[C@@H]2O[C@H](C)C[C@H](N(C)C)[C@H]2O)[C@](C)(OC)C[C@@H](C)C(=O)[C@H](C)[C@H]2N(CCCCn3cnc(-c4cccnc4)c3)C(=O)O[C@]12C [Telithromycin] were, in that order, -0.0361, -0.0283, -0.0237 and 0.0262.
The like results for `CC[C@H]1OC(=O)[C@H](C)[C@@H](O[C@H]2C[C@@](C)(OC)[C@@H](O)[C@H](C)O2)[C@H](C)[C@@H](O[C@@H]2O[C@H](C)C[C@H](N(C)C)[C@H]2O)[C@](C)(O)C[C@@H](C)C(=O)[C@H](C)[C@@H](O)[C@]1(C)O` [Erythromycin] + CN(C)C(=O)C(CCN1CCC(O)(c2ccc(Cl)cc2)CC1)(c1ccccc1)c1ccccc1 [Loperamide] were, in that order, 0.0381, -0.039, 0.0888 and 0.116.
`CN[C@H](CC(C)C)C(=O)N[C@H]1C(=O)N[C@@H](CC(N)=O)C(=O)N[C@H]2C(=O)N[C@H]3C(=O)N[C@H](C(=O)N[C@H](C(=O)O)c4cc(O)cc(O)c4-c4cc3ccc4O)[C@H](O[C@H]3C[C@](C)(N)[C@@H](O)[C@H](C)O3)c3ccc(c(Cl)c3)Oc3cc2cc(c3O[C@@H]2O[C@H](CO)[C@@H](O)[C@H](O)[C@H]2O[C@H]2C[C@](C)(NCc3ccc(-c4ccc(Cl)cc4)cc3)[C@@H](O)[C@H](C)O2)Oc2ccc(cc2Cl)[C@H]1O` [Oritavancin] + CO[C@H]1/C=C/O[C@@]2(C)Oc3c(C)c(O)c4c(O)c(c(/C=N/N5CCN(C)CC5)c(O)c4c3C2=O)NC(=O)/C(C)=C\C=C\[C@H](C)[C@H](O)[C@@H](C)[C@@H](O)[C@@H](C)[C@H](OC(C)=O)[C@@H]1C [Rifampicin]: the Bliss interaction score in assay [1] is -0.0184; in assay [2], 0.0357; in assay [3], -0.0199; in assay [4], 0.106.
For `CO[C@@H]1[C@@H](OC(N)=O)[C@@H](O)[C@H](Oc2ccc3c(O)c(NC(=O)c4ccc(O)c(CC=C(C)C)c4)c(=O)oc3c2C)OC1(C)C` [Novobiocin] + C/C(=C\C(=O)OCCCCCCCCC(=O)O)C[C@@H]1OC[C@H](C[C@@H]2O[C@H]2[C@@H](C)[C@H](C)O)[C@@H](O)[C@H]1O [Pseudomonic acid] the same measures were -0.0516, -0.0166, -0.0173 and 0.241.
The like results for `CO[C@@H]1[C@@H](OC(N)=O)[C@@H](O)[C@H](Oc2ccc3c(O)c(NC(=O)c4ccc(O)c(CC=C(C)C)c4)c(=O)oc3c2C)OC1(C)C` [Novobiocin] + CN[C@H](CC(C)C)C(=O)N[C@H]1C(=O)N[C@@H](CC(N)=O)C(=O)N[C@H]2C(=O)N[C@H]3C(=O)N[C@H](C(=O)N[C@H](C(=O)O)c4cc(O)cc(O)c4-c4cc3ccc4O)[C@H](O)c3ccc(c(Cl)c3)Oc3cc2cc(c3O[C@@H]2O[C@H](CO)[C@@H](O)[C@H](O)[C@H]2O[C@H]2C[C@](C)(N)[C@H](O)[C@H](C)O2)Oc2ccc(cc2Cl)[C@H]1O [Vancomycin] were, in that order, 0.071, -0.0447, -0.0386 and -0.133.
With `CC[C@H]1OC(=O)[C@H](C)[C@@H](O[C@H]2C[C@@](C)(OC)[C@@H](O)[C@H](C)O2)[C@H](C)[C@@H](O[C@@H]2O[C@H](C)C[C@H](N(C)C)[C@H]2O)[C@](C)(O)C[C@@H](C)C(=O)[C@H](C)[C@@H](O)[C@]1(C)O` [Erythromycin] + CO[C@@]12[C@H](COC(N)=O)C3=C(C(=O)C(C)=C(N)C3=O)N1C[C@@H]1N[C@@H]12 [MitomycinC], the Bliss interaction score is 0.0799 in assay [1], 0.0538 in assay [2], -0.048 in assay [3] and -0.0897 in assay [4].
For `CN[C@@H]1[C@H](O)[C@H](NC)[C@H]2O[C@@]3(O)C(=O)C[C@@H](C)O[C@H]3O[C@@H]2[C@H]1O` [Spectinomycin] + Cc1cc(NS(=O)(=O)c2ccc(N)cc2)no1 [Sulfamethoxazol] the same measures were -0.0406, 0.0687, -0.0866 and -0.0374.
Consider `CN[C@H](CC(C)C)C(=O)N[C@H]1C(=O)N[C@@H](CC(N)=O)C(=O)N[C@H]2C(=O)N[C@H]3C(=O)N[C@H](C(=O)N[C@H](C(=O)O)c4cc(O)cc(O)c4-c4cc3ccc4O)[C@H](O[C@H]3C[C@](C)(N)[C@@H](O)[C@H](C)O3)c3ccc(c(Cl)c3)Oc3cc2cc(c3O[C@@H]2O[C@H](CO)[C@@H](O)[C@H](O)[C@H]2O[C@H]2C[C@](C)(NCc3ccc(-c4ccc(Cl)cc4)cc3)[C@@H](O)[C@H](C)O2)Oc2ccc(cc2Cl)[C@H]1O` [Oritavancin] + CCCCCCCCCC(=O)N[C@@H]1[C@H]([C@@H]([C@H](O[C@H]1OC2=C3C=C4C=C2OC5=C(C=C(C=C5)[C@H]([C@H]6C(=O)N[C@@H](C7=C(C(=CC(=C7)O)OC8[C@H]([C@H]([C@@H]([C@H](O8)CO)O)O)O)C9=C(C=CC(=C9)[C@H](C(=O)N6)NC(=O)[C@@H]4NC(=O)[C@@H]1C2=CC(=CC(=C2)OC2=C(C=CC(=C2)[C@H](C(=O)N[C@H](CC2=CC(=C(O3)C=C2)Cl)C(=O)N1)N)O)O)O)C(=O)O)O[C@H]1[C@@H]([C@H]([C@@H]([C@H](O1)CO)O)O)NC(=O)C)Cl)CO)O)O [Teicoplanin], for which the Bliss interaction score in assay [1] (main component drawn) was -0.0407; in assay [2] (main component drawn), -0.117; in assay [3] (main component drawn), -0.0634; in assay [4] (main component drawn) it was 0.0813.
As to `CC[C@H]1OC(=O)[C@H](C)[C@@H](O[C@H]2C[C@@](C)(OC)[C@@H](O)[C@H](C)O2)[C@H](C)[C@@H](O[C@@H]2O[C@H](C)C[C@H](N(C)C)[C@H]2O)[C@](C)(O)C[C@@H](C)C(=O)[C@H](C)[C@@H](O)[C@]1(C)O` [Erythromycin] + CN(C)c1cc(NC(=O)CNC(C)(C)C)c(O)c2c1C[C@H]1C[C@H]3[C@H](N(C)C)C(O)=C(C(N)=O)C(=O)[C@@]3(O)C(O)=C1C2=O [Tigecycline], the Bliss interaction score is -0.0505 in assay [1], -0.0253 in assay [2], -0.0257 in assay [3] and -0.0975 in assay [4].
For `CO[C@@]12[C@H](COC(N)=O)C3=C(C(=O)C(C)=C(N)C3=O)N1C[C@@H]1N[C@@H]12` [MitomycinC] + CO[C@@H]1[C@@H](OC(N)=O)[C@@H](O)[C@H](Oc2ccc3c(O)c(NC(=O)c4ccc(O)c(CC=C(C)C)c4)c(=O)oc3c2C)OC1(C)C [Novobiocin] the same measures were -0.117, -0.137, -0.0588 and -0.11.
As to `CC[C@H]1OC(=O)[C@H](C)[C@@H](O[C@H]2C[C@@](C)(OC)[C@@H](O)[C@H](C)O2)[C@H](C)[C@@H](O[C@@H]2O[C@H](C)C[C@H](N(C)C)[C@H]2O)[C@](C)(O)C[C@@H](C)C(=O)[C@H](C)[C@@H](O)[C@]1(C)O` [Erythromycin] + COc1c(N2C[C@@H]3CCCN[C@@H]3C2)c(F)cc2c(=O)c(C(=O)O)cn(C3CC3)c12 [Moxifloxacin], the Bliss interaction score worked out at 0.0269 in assay [1], 0.0486 in assay [2], 0.0532 in assay [3] and 0.101 in assay [4].
For `CO[C@@]12[C@H](COC(N)=O)C3=C(C(=O)C(C)=C(N)C3=O)N1C[C@@H]1N[C@@H]12` [MitomycinC] + CN[C@@H]1[C@H](O[C@H]2[C@H](O[C@H]3[C@H](O)[C@@H](O)[C@H](N=C(N)N)[C@@H](O)[C@@H]3N=C(N)N)O[C@@H](C)[C@]2(O)C=O)O[C@@H](CO)[C@H](O)[C@H]1O [Streptomycin] the same measures were -0.21, -0.078, -0.117 and -0.072.
For `CC[C@H]1OC(=O)[C@H](C)[C@@H](O[C@H]2C[C@@](C)(OC)[C@@H](O)[C@H](C)O2)[C@H](C)[C@@H](O[C@@H]2O[C@H](C)C[C@H](N(C)C)[C@H]2O)[C@](C)(O)C[C@@H](C)C(=O)[C@H](C)[C@@H](O)[C@]1(C)O` [Erythromycin] + Cc1onc(-c2ccccc2)c1C(=O)N[C@@H]1C(=O)N2[C@@H]1SC(C)(C)[C@@H]2C(=O)O [Oxacillin] the same measures were -0.0427, 0.0255, 0.0345 and 0.0509.
